Measured values published in patent US20240409557A1, “5,6-FUSED AND 6,6-FUSED BICYCLIC ALCOHOLS AND ETHERS AND COMPOSITIONS FOR USE AS 15-PROSTAGLANDIN DEHYDROGENASE MODULATORS” (AMGEN INC., priority 2023, published 2024).

Tests used:
15-PGDH in A549 cells = molecular target: T1, 15-PGDH in A549 cells (Homo sapiens, UniProt P15428); test: A549 cellular 15-PGDH assay (PGE2 accumulation, HTRF); format: cell-based; conditions: interleukin-stimulated, inhibitor 24 hrs, PGE2 by competitive HTRF, read-out: A549 Cell Assay IC50
T1 construct: endogenous in cells; host or cells: A549
T1 sequence (P15428 1-266): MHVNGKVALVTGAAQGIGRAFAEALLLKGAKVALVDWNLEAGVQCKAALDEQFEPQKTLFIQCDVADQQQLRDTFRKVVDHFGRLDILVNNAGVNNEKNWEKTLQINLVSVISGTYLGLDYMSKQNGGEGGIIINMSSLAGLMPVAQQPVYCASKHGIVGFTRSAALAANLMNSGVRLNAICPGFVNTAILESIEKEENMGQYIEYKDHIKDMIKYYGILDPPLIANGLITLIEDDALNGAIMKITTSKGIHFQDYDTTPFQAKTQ
Summary of the method: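 Supernatant PGE2 was quantified by competitive HTRF, in which sample PGE2 blocks FRET between a europium cryptate-labelled antibody and labelled PGE2. It came from A549 epithelial cells induced with IL-13. IC50s were calculated from the inversely proportional signal.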

[1] = molecular target: T2, human recombinant 15-PGDH (Homo sapiens, UniProt P15428); test: Recombinant 15-PGDH enzymatic inhibition assay (PGDH-Lumi, NADH signal); format: biochemical; conditions: recombinant 15-PGDH; 15 min pre-incubation, 60 min reaction with PGE2 and NAD+, NADH signal
T2 sequence (P15428 1-266): T1 sequence (P15428 1-266)
Summary of the method: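 Buffer 50 mM Tris pH 7.5 with 0.01% Tween-20 and […]; compound, 22 two-fold dilutions, pre-incubated with enzyme 15 min before substrate.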

Structure (SMILES) | IC50 (15-PGDH in A549 cells) | IC50 [1]
Cc1c([C@@H](O)C2CC(F)(F)C2)sc2nc(-c3cnc4nn(C)cc4c3)ccc12 (single isomer, unassigned) [Compound B83S] | 1.11 nM | 5.13 nM
Cn1ncc2cc(-c3ccc4cc([C@H](O)C5CCOCC5)sc4n3)ccc21 (single isomer, unassigned) [Compound B34R] | 39.8 nM | 12.4 nM
Cn1cc2cc(-c3ccc4cc([C@@H](O)C5CC(F)(F)C5)sc4n3)cnc2n1 (single isomer, unassigned) [Compound B30S] | 0.406 nM | 0.35 nM
O[C@]1(c2cc3cnc(-c4cnc5nccn5c4)nc3s2)C[C@H](C(F)(F)F)C1 [Compound C124C, cis-1-(2-(imidazo[1,2-a]pyrimidin-6-yl)thieno[2,3-d]pyrimidin-6-yl)-3-(trifluoromethyl)cyclobutanol] | 15.9 nM | 2.01 nM
O[C@]1(c2cc3cnc(-c4ccc5nccnc5c4)nc3s2)C[C@H](C(F)(F)F)C1 [Compound C123C, cis-1-(2-(6-quinoxalinyl)thieno[2,3-d]pyrimidin-6-yl)-3-(trifluoromethyl)cyclobutanol] | 6.18 nM | 0.967 nM
Cn1cnc(-c2ccc3cc(C(O)C4CC(F)(F)C4)sc3n2)cc1=O (stereo not drawn) [Compound B49, 6-(2-((3,3-difluorocyclobutyl)(hydroxy)methyl)thieno[2,3-b]pyridine-6-yl)-3-methylpyrimidin-4(3H)-one] | 0.739 nM | 0.608 nM
Cn1cc2cc(-c3ccc4sc([C@]5(O)C[C@@H](OC(F)(F)F)C5)cc4n3)cnc2n1 [Compound C117C, cis-1-(5-(2-methyl-2H-pyrazolo[3,4-b]pyridin-5-yl)thieno[3,2-b]pyridin-2-yl)-3-(trifluoromethoxy)cyclobutanol] | 1.46 nM | 0.429 nM
Cn1cc2cc(-c3ncc4cc([C@]5(O)C[C@@H](C(F)F)C5)sc4n3)cnc2n1 [Compound C80C, cis-3-(difluoromethyl)-1-(2-(2-methyl-2H-pyrazolo[3,4-b]pyridin-5-yl)thieno[2,3-d]pyrimidin-6-yl)cyclobutanol] | 1.26 nM | 0.771 nM
Cc1cn2cc(-c3ccc4cc([C@]5(O)C[C@@H](C(F)F)C5)sc4n3)cnc2n1 [Compound C97C, cis-3-(difluoromethyl)-1-(6-(2-methylimidazo[1,2-a]pyrimidin-6-yl)thieno[2,3-b]pyridin-2-yl)cyclobutanol] | 1.46 nM | 0.333 nM
CO[C@]1(C)C[C@@](O)(c2cc3ccc(-c4cnc5nn(C)cc5c4)nc3s2)C1 [Compound C59C, cis-3-methoxy-3-methyl-1-(6-(2-methyl-2H-pyrazolo[3,4-b]pyridin-5-yl)thieno[2,3-b]pyridin-2-yl)cyclobutanol] | 0.113 nM | 0.584 nM
Cn1ccc2cc(-c3ccc4cc([C@H](O)C5CC(F)(F)C5)sc4n3)ccc2c1=O (single isomer, unassigned) [Compound B50R] | 0.52 nM | 0.343 nM
Cn1cc2cc(-c3ccc4cc([C@H](O)[C@H]5C[C@@H](C(F)(F)F)C5)sc4n3)cnc2n1 (single isomer, unassigned) [Compound B84RC] | 0.492 nM | 0.47 nM
Cn1cc2cc(-c3cnc4cc([C@@H](O)C5CC(F)(F)C5)sc4n3)cnc2n1 [Compound B92S, (S)-(3,3-difluorocyclobutyl)(3-(2-methyl-2H-pyrazolo[3,4-b]pyridin-5-yl)thieno[2,3-b]pyrazin-6-yl)methanol] | 3.44 nM | 5.14 nM
Cn1cc2cc(-c3ccc4cc([C@@]5(O)CCC5(C)C)sc4n3)cnc2n1 (single isomer, unassigned) [Compound C65R] | 3.45 nM | 32.6 nM
OC1(c2cc3ccc(-c4cncnc4)nc3s2)CC(F)(F)C1 [Compound C46, 3,3-difluoro-1-(6-(5-pyrimidinyl)thieno[2,3-b]pyridin-2-yl)cyclobutanol] | 12.3 nM | 26.1 nM
